Results as given in paper PMC11641365, “Evaluation of In Vitro Biological Activity of Flavanone/Chromanone Derivatives: Molecular Analysis of Anticancer Mechanisms in Colorectal Cancer” (International Journal of Molecular Sciences, 2024).

How the values were obtained:
Assay in all cases: Hydrogen peroxide level, H2DCFDA probe
Type in all cases: cell-based, human
[1] = test system: SW620; details: compound at IC50, 24 h, vs control
Description: (§1) Cellular H2O2 levels were assessed using 2′,7′-dichlorodihydrofluorescein diacetate (H2DCFDA, Sigma-Aldrich, St. Louis, MO, USA), a well-established fluorogenic probe for intracellular hydrogen peroxide detection. H2DCFDA readily diffuses across the cell membrane and is subsequently hydrolyzed by intracellular esterases to non-fluorescent H2DCF. Oxidation of H2DCF by ROS generates highly fluorescent 2′,7′-dichlorofluorescein (DCF), which accumulates in the cytosol. […] The fluorescence intensity of DCF is directly proportional to the concentration of ROS within the cell.
(§2) Cells were seeded in black 96-well fluorometric microplates at a density of 10 × 10^3 cells/mL. […] Following compound incubation, the medium was removed, and the cell monolayers were washed twice with HBSS (140 mM NaCl, 5 mM KCl, 0.8 mM MgCl2, 1.8 mM CaCl2, 1 mM Na2HPO4, 10 mM HEPES, and 1% glucose). A volume of 50 µL of H2DCFDA solution in HBSS (final concentration 5 μM) was added to each well, and the cells were incubated for 30 min in the dark at 37 °C. After incubation with the H2DCFDA, fluorescence measurements were conducted using a Perkin-Elmer LS-5B spectrofluorometer (MA, USA) at the following excitation and fluorescence emission wavelengths: λex = 498 nm/λem = 522 nm. The fluorescence intensity of control cells was arbitrarily assigned a value of 100%. The results were expressed as percentages of control, calculated by comparing the fluorescence intensity ratio of the test samples to controls (100%). The fluorescence of samples was denoted as Δf in relation to the control.

[2] = test system: HCT 116; details: compound at IC50, 24 h
Description: as §1, §2

[3] = test system: Caco-2; details: compound at IC50, 24 h, vs control
Description: as §1, §2

Structure (SMILES) | Increase in H2O2 levels [1] | Effect on H2O2 levels [2] | Increase in H2O2 levels [3]
O=C1/C(=C/c2ccccc2)C(c2ccccc2)Oc2ccccc21 (stereo not drawn) [Compound 5] | 15% | did not affect H2O2 levels | 
O=C1/C(=C/c2ccccc2)COc2ccccc21 [Compound 1] |  |  | approximately 25%
